# Literature values in patent US6829374B2, “Methods for measuring iris color over time” (Glaucoma Research, Inc., priority 2001, dated 2004).
# System: iris color
# Settings: ocular medication, recent studies
row,change in iris color,Structure (SMILES)
1,change in iris color,CC(C)OC(=O)CCC/C=C\C[C@@H]1[C@@H](CC[C@@H](O)CCc2ccccc2)[C@H](O)C[C@@H]1O [latanoprost]
2,change in iris color,CCCCCCCC(=O)CC[C@@H]1[C@@H](C/C=C\CCCC(=O)O)[C@@H](O)C[C@H]1O [unoprostone]
